Experimental data: US8551984B2, “Aminopyrimidines as SYK inhibitors” (Merck Sharp & Dohme Corp., priority 2009, dated 2013)

molecular target: recombinant human SYK (GST-hSYK fusion protein) (Homo sapiens, UniProt P43405); experiment: biochemical; details: rhSYK Activity, Table 54D
From the text: Homogeneous Time-Resolved Fluorescence (HTRF) Assay for the Recombinant Human SYK Enzyme:

IC50, < 100 nM:
CCC(=O)N1CCCC(O)(c2ncc(-c3cc(C)cc(Nc4nccc(C(F)(F)F)n4)c3)s2)CC1 (stereo not shown) [Example 54D-5], Cc1cc(Nc2nccc(C(C)C)n2)cc(-c2cnc(C3(O)CCCN(C(=O)CC(N)=O)CC3)s2)c1 (stereo not shown) [Example 54D-6], Cc1cc(Nc2nccc(C(C)C)n2)cc(-c2cnc(C3(O)CCCN(C(=O)CC(=O)O)CC3)s2)c1 (stereo not shown) [Example 54D-7], Cc1cc(Nc2nccc(C(C)C)n2)cc(-c2cnc(C3(O)CCCN(C(=O)C(O)CO)CC3)s2)c1 (stereo not shown) [Example 54D-8], Cc1cc(Nc2nccc(C(F)(F)F)n2)cc(-c2cnc(C3(O)CCCN(C(=O)CC#N)CC3)s2)c1 (stereo not shown) [Example 54D-9], Cc1cc(Nc2nccc(C(F)(F)F)n2)cc(-c2cnc(C3(O)CCCN(C(=O)C4CC4)CC3)s2)c1 (stereo not shown) [Example 54D-10], C=CCC(=O)N1CCCC(O)(c2ncc(-c3cc(C)cc(Nc4nccc(C(F)(F)F)n4)c3)s2)CC1 (stereo not shown) [Example 54D-11], COCC(=O)N1CCCC(O)(c2ncc(-c3cc(C)cc(Nc4nccc(C(F)(F)F)n4)c3)s2)CC1 (stereo not shown) [Example 54D-12], Cc1cc(Nc2nccc(C(F)(F)F)n2)cc(-c2cnc(C3(O)CCCN(C(=O)CCO)CC3)s2)c1 (stereo not shown) [Example 54D-13], Cc1cc(Nc2nccc(C(F)(F)F)n2)cc(-c2cnc(C3(O)CCCN(C(=O)C(C)O)CC3)s2)c1 (stereo not shown) [Example 54D-14], Cc1cc(Nc2nccc(C(C)C)n2)cc(-c2cnc(C3(O)CCCN(C(=O)CCC(N)=O)CC3)s2)c1 (stereo not shown) [Example 54D-15], Cc1cc(Nc2nccc(C(F)(F)F)n2)cc(-c2cnc(C3(O)CCCN(C(=O)CCC#N)CC3)s2)c1 (stereo not shown) [Example 54D-16], Cc1cc(Nc2nccc(C(C)C)n2)cc(-c2cnc(C3(O)CCCN(C(=O)Cn4cnnn4)CC3)s2)c1 (stereo not shown) [Example 54D-19], Cc1cc(Nc2nccc(C(F)(F)F)n2)cc(-c2cnc(C3(O)CCCN(C(=O)CC(N)=O)CC3)s2)c1 (stereo not shown) [Example 54D-22], Cc1cc(Nc2nccc(C(F)(F)F)n2)cc(-c2cnc(C3(O)CCCN(C(=O)CC(C)O)CC3)s2)c1 (stereo not shown) [Example 54D-23], Cc1cc(Nc2nccc(C(F)(F)F)n2)cc(-c2cnc(C3(O)CCCN(C(=O)CC(=O)O)CC3)s2)c1 (stereo not shown) [Example 54D-24], Cc1cc(Nc2nccc(C(F)(F)F)n2)cc(-c2cnc(C3(O)CCCN(C(=O)C(O)CO)CC3)s2)c1 (stereo not shown) [Example 54D-27], CCOC(=O)CC(=O)N1CCCC(O)(c2ncc(-c3cc(C)cc(Nc4nccc(C(C)C)n4)c3)s2)CC1 (stereo not shown) [Example 54D-30], Cc1cc(Nc2nccc(C(C)C)n2)cc(-c2cnc(C3(O)CCCN(C(=O)C(C)(CO)CO)CC3)s2)c1 (stereo not shown) [Example 54D-31], Cc1cc(Nc2nccc(C(F)(F)F)n2)cc(-c2cnc(C3(O)CCCN(C(=O)c4ncc[nH]4)CC3)s2)c1 (stereo not shown) [Example 54D-34], Cc1cc(Nc2nccc(C(F)(F)F)n2)cc(-c2cnc(C3(O)CCCN(C(=O)C4CCCO4)CC3)s2)c1 (stereo not shown) [Example 54D-40], Cc1cc(Nc2nccc(C(F)(F)F)n2)cc(-c2cnc(C3(O)CCCN(C(=O)CCC(=O)O)CC3)s2)c1 (stereo not shown) [Example 54D-43], Cc1cc(Nc2nccc(C(F)(F)F)n2)cc(-c2cnc(C3(O)CCCN(C(=O)CC(C)(C)O)CC3)s2)c1 (stereo not shown) [Example 54D-44], Cc1cc(Nc2nccc(C(F)(F)F)n2)cc(-c2cnc(C3(O)CCCN(C(=O)c4ccccc4)CC3)s2)c1 (stereo not shown) [Example 54D-45], Cc1cc(Nc2nccc(C(F)(F)F)n2)cc(-c2cnc(C3(O)CCCN(C(=O)Cn4ccnc4)CC3)s2)c1 (stereo not shown) [Example 54D-46], Cc1cc(Nc2nccc(C(F)(F)F)n2)cc(-c2cnc(C3(O)CCCN(C(=O)Cc4c[nH]cn4)CC3)s2)c1 (stereo not shown) [Example 54D-47], Cc1cc(Nc2nccc(C(F)(F)F)n2)cc(-c2cnc(C3(O)CCCN(C(=O)c4cc(C)on4)CC3)s2)c1 (stereo not shown) [Example 54D-48], Cc1cc(Nc2nccc(C(F)(F)F)n2)cc(-c2cnc(C3(O)CCCN(C(=O)Cn4cncn4)CC3)s2)c1 (stereo not shown) [Example 54D-49], Cc1cc(Nc2nccc(C(F)(F)F)n2)cc(-c2cnc(C3(O)CCCN(C(=O)CC(F)(F)F)CC3)s2)c1 (stereo not shown) [Example 54D-54], Cc1cc(Nc2nccc(C(F)(F)F)n2)cc(-c2cnc(C3(O)CCCN(C(=O)c4nnnn4C)CC3)s2)c1 (stereo not shown) [Example 54D-55], Cc1cc(Nc2nccc(C(F)(F)F)n2)cc(-c2cnc(C3(O)CCCN(C(=O)Cn4cnnn4)CC3)s2)c1 (stereo not shown) [Example 54D-56], Cc1cc(Nc2nccc(C(F)(F)F)n2)cc(-c2cnc(C3(O)CCCN(C(=O)C4CCC(=O)N4)CC3)s2)c1 (stereo not shown) [Example 54D-61], Cc1cc(Nc2nccc(C(F)(F)F)n2)cc(-c2cnc(C3(O)CCCN(C(=O)c4n[nH]c(=O)[nH]4)CC3)s2)c1 (stereo not shown) [Example 54D-62], Cc1cc(Nc2nccc(C(F)(F)F)n2)cc(-c2cnc(C3(O)CCCN(C(=O)C4CNC(=O)N4)CC3)s2)c1 (stereo not shown) [Example 54D-64], Cc1cc(Nc2nccc(C(F)(F)F)n2)cc(-c2cnc(C3(O)CCCN(C(=O)C4CCCCO4)CC3)s2)c1 (stereo not shown) [Example 54D-65], Cc1cc(Nc2nccc(C(F)(F)F)n2)cc(-c2cnc(C3(O)CCCN(C(=O)C4CCC(=O)O4)CC3)s2)c1 (stereo not shown) [Example 54D-66], Cc1cc(Nc2nccc(C(F)(F)F)n2)cc(-c2cnc(C3(O)CCCN(C(=O)CC4CCOC4)CC3)s2)c1 (stereo not shown) [Example 54D-67], Cc1cc(Nc2nccc(C(F)(F)F)n2)cc(-c2cnc(C3(O)CCCN(C(=O)C4CCCOC4)CC3)s2)c1 (stereo not shown) [Example 54D-68], Cc1cc(Nc2nccc(C(F)(F)F)n2)cc(-c2cnc(C3(O)CCCN(C(=O)C4(C(=O)O)CC4)CC3)s2)c1 (stereo not shown) [Example 54D-70], Cc1cc(Nc2nccc(C(F)(F)F)n2)cc(-c2cnc(C3(O)CCCN(C(=O)C4CC4C(=O)O)CC3)s2)c1 (stereo not shown) [Example 54D-71], COC(=O)CCC(=O)N1CCCC(O)(c2ncc(-c3cc(C)cc(Nc4nccc(C(F)(F)F)n4)c3)s2)CC1 (stereo not shown) [Example 54D-72], CCOC(=O)CC(=O)N1CCCC(O)(c2ncc(-c3cc(C)cc(Nc4nccc(C(F)(F)F)n4)c3)s2)CC1 (stereo not shown) [Example 54D-73], Cc1cc(Nc2nccc(C(F)(F)F)n2)cc(-c2cnc(C3(O)CCCN(C(=O)CCNC(N)=O)CC3)s2)c1 (stereo not shown) [Example 54D-76], Cc1cc(Nc2nccc(C(F)(F)F)n2)cc(-c2cnc(C3(O)CCCN(C(=O)C(O)C(C)(C)O)CC3)s2)c1 (stereo not shown) [Example 54D-77], Cc1cc(Nc2nccc(C(F)(F)F)n2)cc(-c2cnc(C3(O)CCCN(C(=O)C(C)(CO)CO)CC3)s2)c1 (stereo not shown) [Example 54D-78], Cc1cc(Nc2nccc(C(F)(F)F)n2)cc(-c2cnc(C3(O)CCCN(C(=O)Cc4cccnc4)CC3)s2)c1 (stereo not shown) [Example 54D-81], Cc1cc(Nc2nccc(C(F)(F)F)n2)cc(-c2cnc(C3(O)CCCN(C(=O)Cc4ccccn4)CC3)s2)c1 (stereo not shown) [Example 54D-82], Cc1cc(Nc2nccc(C(F)(F)F)n2)cc(-c2cnc(C3(O)CCCN(C(=O)CS(C)(=O)=O)CC3)s2)c1 (stereo not shown) [Example 54D-83], Cc1cc(Nc2nccc(C(F)(F)F)n2)cc(-c2cnc(C3(O)CCCN(C(=O)c4ccc(O)cc4)CC3)s2)c1 (stereo not shown) [Example 54D-84], Cc1cc(Nc2nccc(C(F)(F)F)n2)cc(-c2cnc(C3(O)CCCN(C(=O)c4ccc(O)cn4)CC3)s2)c1 (stereo not shown) [Example 54D-85], Cc1cc(Nc2nccc(C(F)(F)F)n2)cc(-c2cnc(C3(O)CCCN(C(=O)c4cccc(O)n4)CC3)s2)c1 (stereo not shown) [Example 54D-86], Cc1cc(Nc2nccc(C(F)(F)F)n2)cc(-c2cnc(C3(O)CCCN(C(=O)c4cc(O)ccn4)CC3)s2)c1 (stereo not shown) [Example 54D-87], Cc1cc(Nc2nccc(C(F)(F)F)n2)cc(-c2cnc(C3(O)CCCN(C(=O)CCc4cn[nH]c4)CC3)s2)c1 (stereo not shown) [Example 54D-88], Cc1cc(Nc2nccc(C(F)(F)F)n2)cc(-c2cnc(C3(O)CCCN(C(=O)CCC(F)(F)F)CC3)s2)c1 (stereo not shown) [Example 54D-90], Cc1cc(Nc2nccc(C(F)(F)F)n2)cc(-c2cnc(C3(O)CCCN(C(=O)CN4CCCC4=O)CC3)s2)c1 (stereo not shown) [Example 54D-91], Cc1cc(Nc2nccc(C(F)(F)F)n2)cc(-c2cnc(C3(O)CCCN(C(=O)C4CCCC(=O)N4)CC3)s2)c1 (stereo not shown) [Example 54D-92], Cc1cc(Nc2nccc(C(F)(F)F)n2)cc(-c2cnc(C3(O)CCCN(C(=O)Cc4n[nH]c(=O)[nH]4)CC3)s2)c1 (stereo not shown) [Example 54D-93], COC(=O)C1(C(=O)N2CCCC(O)(c3ncc(-c4cc(C)cc(Nc5nccc(C(F)(F)F)n5)c4)s3)CC2)CC1 (stereo not shown) [Example 54D-95], Cc1cc(Nc2nccc(C(F)(F)F)n2)cc(-c2cnc(C3(O)CCCN(C(=O)CC4CCOCC4)CC3)s2)c1 (stereo not shown) [Example 54D-96], Cc1cc(Nc2nccc(C(F)(F)F)n2)cc(-c2cnc(C3(O)CCCN(C(=O)C(O)C(F)(F)F)CC3)s2)c1 (stereo not shown) [Example 54D-97], Cc1cc(Nc2nccc(C(F)(F)F)n2)cc(-c2cnc(C3(O)CCCN(C(=O)CCC(=O)N(C)C)CC3)s2)c1 (stereo not shown) [Example 54D-98]
